Data reported in ChEMBL document CHEMBL5230154, “Chemical probe of AHL modulators on quorum sensing in Gram-Negative Bacteria and as antiproliferative agents: A review” (Eur J Med Chem, 2021).
pEC50, pIC50: −log10 of the molar value.

How the values were obtained:
Pseudomonas aeruginosa [1] = assay: Inhibition of quorum sensing system in Pseudomonas aeruginosa MH602 expressing PlasB::gfp assessed as inhibition of GFP fluorescence expression at 250 uM incubated for 15 hrs by fluorescence microplate reader analysis
Escherichia coli [2] = assay: Antagonist activity against quorum sensing system in Pseudomonas aeruginosa PAO1 assessed as inhibition of 3OC6HSL- induced GFP expression at 50 uM by fluorescence analysis; settings: filed as antagonist
Pseudomonas aeruginosa [3] = assay: Inhibition of quorum sensing system in Pseudomonas aeruginosa MH602 PlasB-gfp(ASV) assessed as inhibition of green fluorescent protein production at 62.5 uM for 20 hrs by fluorescence assay
Pseudomonas aeruginosa [4] = assay: Inhibition of quorum sensing system in Pseudomonas aeruginosa MH602 PlasB-gfp(ASV) assessed as inhibition of green fluorescent protein production at 125 uM for 20 hrs by fluorescence assay
Pseudomonas aeruginosa [5] = assay: Inhibition of quorum sensing system in Pseudomonas aeruginosa MH602 PlasB-gfp(ASV) assessed as inhibition of green fluorescent protein production at 250 uM for 20 hrs by fluorescence assay
[6] = target: T1, Transcriptional activator protein LasR (Pseudomonas aeruginosa (strain ATCC 15692 / PAO1 / 1C / PRS 101 / LMG12228), UniProt P25084); assay: Antagonist activity against LasR-mediated quorum sensing system in Pseudomonas aeruginosa PAO1 by spectrophotometric assay
T1 sequence (P25084 whole entry): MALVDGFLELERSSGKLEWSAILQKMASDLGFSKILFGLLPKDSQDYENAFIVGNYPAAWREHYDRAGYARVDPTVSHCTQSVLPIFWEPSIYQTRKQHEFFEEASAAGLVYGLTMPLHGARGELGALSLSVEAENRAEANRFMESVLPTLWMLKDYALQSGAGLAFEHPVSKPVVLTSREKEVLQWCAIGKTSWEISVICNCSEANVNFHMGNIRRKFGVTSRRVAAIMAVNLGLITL

Pseudomonas aeruginosa [7] = assay: Inhibition of quorum sensing system in Pseudomonas aeruginosa MH602 PlasB-gfp(ASV) assessed as inhibition of green fluorescent protein production at 62.5 to 250 uM for 20 hrs by fluorescence assay; settings: dose 62.5-250 µM
Escherichia coli [8] = assay: Inhibition of Escherichia coli DH5alpha LasR co-expressing LasR beta-galactosidase reporter assessed as inhibition of beta-galactosidase activity at 100 uM incubated for 2 hrs by spectrophotometric assay
[9] = Inhibition of Escherichia coli DH5alpha LasR co-expressing LasR beta-galactosidase reporter assessed as inhibition of beta-galactosidase activity incubated for 2 hrs by spectrophotometric assay
[10] = Inhibition of quorum sensing system in Chromobacterium violaceum CV026 assessed as inhibition of violacein production incubated for 16 to 18 hrs by spectrophotometric assay
[11] = Agonist activity against RhlR in Escherichia coli expressing JLD271/pJN105R2/pSC11-rhlI using CPRG as substrate by spectrophotometric assay
[12] = Antagonist activity against quorum sensing system in Vibrio harveyi BB120 assessed as inhibition of […] incubated for 5 hrs by bioluminescence assay
Pseudomonas aeruginosa [13] = assay: Inhibition of Pseudomonas aeruginosa MH602 harboring PlasB::gfp(ASV) reporter assessed as decrease in GFP expression at 250 uM incubated for 22 hrs by fluorescence microplate reader analysis
[14] = Inhibition of quorum sensing system in Pseudomonas aeruginosa PAO1 assessed as inhibition of pyocyanin production at 15 uM incubated for 12 hrs by spectrophotometric assay
[15] = Inhibition of quorum sensing system in Pseudomonas aeruginosa PAO1 assessed as inhibition of rhamnolipid production at 15 uM incubated for 12 hrs by spectrophotometric assay
Pseudomonas aeruginosa [16] = assay: Inhibition of biofilm formation in Pseudomonas aeruginosa PAO1 incubated for 12 hrs by crystal violet staining based analysis; format: functional
[17] = Inhibition of quorum sensing system in Pseudomonas aeruginosa PAO1 assessed as decrease in lasI expression at 15 uM incubated for 12 hrs by real-time fluorescent quantitative PCR analysis
[18] = Inhibition of quorum sensing system in Pseudomonas aeruginosa PAO1 assessed as inhibition of elastase production at 15 uM incubated for 12 hrs by Congo red dye based spectrophotometric assay
[19] = Inhibition of quorum sensing system in Pseudomonas aeruginosa PAO1 assessed as decrease in pqsR expression at 15 uM incubated for 12 hrs by real-time fluorescent quantitative PCR analysis

CCCCCCNC(=O)c1ccc(N2CC(Cl)=C(Cl)C2=O)cc1
inhibition (Pseudomonas aeruginosa [1]): 30%

CCOC(=O)/C=C1\CC(NCc2ccccc2)C(=O)N1Cc1ccccc1 (stereo not given)
inhibition (Escherichia coli [2]): 57.9%

CCCCCc1cn(CC(=O)Nc2nc3ccccc3[nH]2)nn1
inhibition (Pseudomonas aeruginosa [3]): 25%
inhibition (Pseudomonas aeruginosa [4]): 34%
inhibition (Pseudomonas aeruginosa [5]): 42%

CCCCCCN1CC(Cl)=C(Cl)C1=O
inhibition (Pseudomonas aeruginosa [1]): 68%

CCCCNC(=O)c1ccc(N2CC(Cl)=C(Cl)C2=O)cc1
inhibition (Pseudomonas aeruginosa [1]): 30%

CCOC(=O)/C=C1\CC(NCc2cccs2)C(=O)N1Cc1cccs1 (stereo not given)
inhibition (Escherichia coli [2]): 53.5%

O=C(CNc1ccc(C(=O)/C=C/c2ccccc2Cl)cc1)N[C@H]1CCOC1=O
pIC50 [6]: 4.17

O=C(Cn1cc(-c2ccc(F)cc2)nn1)Nc1nc2ccccc2[nH]1
inhibition (Pseudomonas aeruginosa [7]): 49%

Cc1ccc(-n2cc(CCC(=O)N[C@H]3CCOC3=O)nn2)cc1
inhibition (Escherichia coli [8]): 72%
pIC50 [9]: 4.96

C=CCN1CC(Cl)=C(Cl)C1=O
inhibition (Pseudomonas aeruginosa [1]): 76.4%

O=C(Nc1ccc(S(=O)(=O)N[C@H]2CCOC2=O)cc1)c1ccc(F)cc1
pIC50 [10]: 4.83

COc1cccc(/C=C/C(=O)c2ccc(NCC(=O)N[C@H]3CCOC3=O)cc2)c1
pIC50 [6]: 4.25

CCCCCC(=O)N[C@H]1CCOC1=O
pEC50 [11]: 4.97

CCOC(=O)CC(=O)c1ccc(I)cc1
pIC50 [12]: 4.41

O=C(Cn1cc(CC2CCCCC2)nn1)N[C@H]1CCOC1=O
inhibition (Escherichia coli [8]): 14%

Nc1cccc(-n2cc(CCC(=O)N[C@H]3CCOC3=O)nn2)c1
pIC50 [9]: 5.39

O=C(Cn1cc(-c2ccc(C(F)(F)F)cc2)nn1)Nc1nc2ccccc2[nH]1
inhibition (Pseudomonas aeruginosa [7]): 57.5%

O=C(Cn1cc(-c2cccc([N+](=O)[O-])c2)nn1)Nc1nc2ccccc2[nH]1
inhibition (Pseudomonas aeruginosa [7]): 28.2%

O=C(Nc1ccc(S(=O)(=O)N[C@H]2CCOC2=O)cc1)c1cccc(F)c1
pIC50 [10]: 5.11

O=C(CNc1ccc(C(=O)/C=C/c2ccc(Cl)cc2)cc1)N[C@H]1CCOC1=O
pIC50 [6]: 4.33

O=C(Cn1cc(-c2ccccc2)nn1)N[C@H]1CCOC1=O
inhibition (Escherichia coli [8]): 89.6%
pIC50 [9]: 4.80

CCOC(=O)CC(=O)c1ccc(Br)cc1
pIC50 [12]: 4.09

CCCCCCCc1cn(CC(=O)Nc2nc3ccccc3[nH]2)nn1
inhibition (Pseudomonas aeruginosa [3]): 25%
inhibition (Pseudomonas aeruginosa [4]): 34%
inhibition (Pseudomonas aeruginosa [5]): 42%

O=C(Cn1cc(-c2ccc(Cl)cc2)nn1)Nc1nc2ccccc2[nH]1
inhibition (Pseudomonas aeruginosa [3]): 52.9%
inhibition (Pseudomonas aeruginosa [4]): 60.5%
inhibition (Pseudomonas aeruginosa [5]): 65%

O=C(CNc1ccc(C(=O)/C=C/c2cc(Cl)cc(Cl)c2)cc1)N[C@H]1CCOC1=O
pIC50 [6]: 4.33

CCCc1cn(CC(=O)Nc2nc3ccccc3[nH]2)nn1
inhibition (Pseudomonas aeruginosa [3]): 25%
inhibition (Pseudomonas aeruginosa [4]): 34%
inhibition (Pseudomonas aeruginosa [5]): 42%

Cc1ccc2c(c1)C(=O)C(=O)N2C(=O)CCl
inhibition (Pseudomonas aeruginosa [13]): 57.4%

O=C(Nc1ccc(S(=O)(=O)N[C@H]2CCOC2=O)cc1)c1cccc(Cl)c1
pIC50 [10]: 5.07

CCOC(=O)CC(=O)c1cccc(OC)c1
pIC50 [12]: 4.39

O=C(N[C@H]1CCOC1=O)c1ccc(-n2cc(CSc3ccccc3)nn2)cc1
inhibition (Escherichia coli [8]): 62%
pIC50 [9]: 5.58

C/C=C/CCC(=O)N[C@H]1CCOC1=O
pEC50 [11]: 5.16

O=C(CNc1ccc(C(=O)/C=C/c2ccc(Br)cc2F)cc1)N[C@H]1CCOC1=O
pIC50 [6]: 4.58

CCOC(=O)CC(=O)c1ccc(OC)cc1
pIC50 [12]: 4.44

CCCCC(=O)Nc1ccc(S(=O)(=O)N[C@H]2CCOC2=O)cc1
pIC50 [10]: 4.31

CCOC(=O)CC(=O)c1cccc2ccccc12
pIC50 [12]: 4.12

CCOC(=O)CC(=O)c1cccc(C)c1
pIC50 [12]: 4.25

CCOC(=O)/C=C1\CC(NCc2ccco2)C(=O)N1Cc1ccco1 (stereo not given)
inhibition (Escherichia coli [2]): 56.9%

O=C(CNc1ccc(C(=O)/C=C/c2ccccc2)cc1)N[C@H]1CCOC1=O
pIC50 [6]: 4.20

CCCCc1cn(CC(=O)N[C@H]2CCOC2=O)nn1
inhibition (Escherichia coli [8]): 75%
pIC50 [9]: 4.75

O=C(CNc1ccc(C(=O)/C=C/c2ccccc2Br)cc1)N[C@H]1CCOC1=O
pIC50 [6]: 4.42

O=C(Nc1ccc(S(=O)(=O)N[C@H]2CCOC2=O)cc1)c1ccccc1Cl
pIC50 [10]: 5.78

Cc1ccc(-c2cn(CC(=O)Nc3nc4ccccc4[nH]3)nn2)cc1
inhibition (Pseudomonas aeruginosa [7]): 32%

O=C(CCSc1nc2ccccc2s1)N[C@H]1CCOC1=O
inhibition [14]: 15.1%
inhibition [15]: 22.2%
inhibition (INH) (Pseudomonas aeruginosa [16]): 38%
inhibition [17]: 32.9%

CC(C)CCC(=O)N[C@H]1CCOC1=O
pEC50 [11]: 5.31

O=C(Cn1cc(-c2cc(F)cc(F)c2)nn1)N[C@H]1CCOC1=O
inhibition (Escherichia coli [8]): 71%
pIC50 [9]: 4.86

O=C(CNc1ccc(C(=O)/C=C/c2ccc(F)cc2)cc1)N[C@H]1CCOC1=O
pIC50 [6]: 4.33

O=C(CNc1ccc(C(=O)/C=C/c2ccc(Cl)c(Cl)c2)cc1)N[C@H]1CCOC1=O
pIC50 [6]: 4.33

CCOC(=O)CC(=O)c1ccc(F)cc1
pIC50 [12]: 4.64

CCCCN1CC(Cl)=C(Cl)C1=O
inhibition (Pseudomonas aeruginosa [1]): 71.4%

CCOC(=O)/C=C1\CC(NCc2ccc(C)cc2)C(=O)N1Cc1ccc(C)cc1 (stereo not given)
inhibition (Escherichia coli [2]): 47.9%

CCOC(=O)CC(=O)c1ccc(Cl)cc1
pIC50 [12]: 4.28

O=C(Nc1ccc(S(=O)(=O)N[C@H]2CCOC2=O)cc1)c1ccc(Cl)cc1
pIC50 [10]: 4.80

CCc1cn(CC(=O)Nc2nc3ccccc3[nH]2)nn1
inhibition (Pseudomonas aeruginosa [3]): 25%
inhibition (Pseudomonas aeruginosa [4]): 34%
inhibition (Pseudomonas aeruginosa [5]): 42%

O=C(CNc1ccc(C(=O)/C=C/c2ccc(Br)cc2)cc1)N[C@H]1CCOC1=O
pIC50 [6]: 4.33

O=C(CCC1CC1)N[C@H]1CCOC1=O
pEC50 [11]: 5.56

O=C(Nc1ccc(S(=O)(=O)N[C@H]2CCOC2=O)cc1)c1ccccc1
pIC50 [10]: 4.76

CCOC(=O)CC(=O)c1cccc([N+](=O)[O-])c1
pIC50 [12]: 4.15

O=C(Cn1cc(-c2ccc([N+](=O)[O-])cc2)nn1)Nc1nc2ccccc2[nH]1
inhibition (Pseudomonas aeruginosa [7]): 63.7%

O=C(Cn1cc(-c2ccc(O)cc2)nn1)Nc1nc2ccccc2[nH]1
inhibition (Pseudomonas aeruginosa [7]): 34%

Cc1cc2nc(NC(=O)Cn3cc(-c4ccc(C(F)(F)F)cc4)nn3)[nH]c2cc1C
inhibition (Pseudomonas aeruginosa [7]): 36.1%

CCOC(=O)CC(=O)c1ccccc1
pIC50 [12]: 4.12

O=C(Cn1cc(C2CCCC2)nn1)N[C@H]1CCOC1=O
inhibition (Escherichia coli [8]): 70%
pIC50 [9]: 4.79

O=C(Cn1cc(C2CC2)nn1)N[C@H]1CCOC1=O
inhibition (Escherichia coli [8]): 52%

Cc1ccc2c(c1)C(=O)C(=O)NCc1cnnn1CC(=O)Nc1ccc(C)cc1C(=O)C(=O)NCc1cnnn1CC(=O)N2
inhibition (Pseudomonas aeruginosa [13]): 58.6%

CCCCCC(=O)Nc1ccc(S(=O)(=O)N[C@H]2CCOC2=O)cc1
pIC50 [10]: 4.54

O=C(Cn1cc(-c2ccc(Br)cc2)nn1)Nc1nc2ccccc2[nH]1
inhibition (Pseudomonas aeruginosa [7]): 45.7%

COc1ccc(-n2cc(CCC(=O)N[C@H]3CCOC3=O)nn2)cc1
inhibition (Escherichia coli [8]): 75%
pIC50 [9]: 4.78

O=C(Cn1cc(C2CCCCC2)nn1)N[C@H]1CCOC1=O
inhibition (Escherichia coli [8]): 72%
pIC50 [9]: 4.91

O=C1Cn2nncc2CNC(=O)C(=O)c2cc(F)ccc2NC(=O)Cn2nncc2CNC(=O)C(=O)c2cc(F)ccc2N1
inhibition (Pseudomonas aeruginosa [13]): 46%

O=C(Nc1ccc(S(=O)(=O)N[C@H]2CCOC2=O)cc1)c1ccccc1F
pIC50 [10]: 5.79

CCCCCc1cn(CC(=O)N[C@H]2CCOC2=O)nn1
inhibition (Escherichia coli [8]): 55%
pIC50 [9]: 5.49

COc1ccc(-c2cn(CC(=O)Nc3nc4ccccc4[nH]3)nn2)cc1
inhibition (Pseudomonas aeruginosa [4]): 5.16%
inhibition (Pseudomonas aeruginosa [5]): 20%

O=C(NCc1ccccc1)c1ccc(N2CC(Cl)=C(Cl)C2=O)cc1
inhibition (Pseudomonas aeruginosa [1]): 30%

CCC(C)CC(=O)N[C@H]1CCOC1=O (stereo not given in full)
pEC50 [11]: 5.11

COc1ccccc1NC(=O)NC(=O)CSC(=S)N[C@H]1CCOC1=O
inhibition [14]: 30.3%
inhibition [18]: 18.4%
inhibition [15]: 16.7%
inhibition (INH) (Pseudomonas aeruginosa [16]): 40.3%
inhibition [17]: 39.2%
inhibition [19]: 57.5%

CCOC(=O)CC(=O)c1ccc(C)cc1
pIC50 [12]: 4.02

O=C(CSc1nc2ccccc2s1)N[C@H]1CCOC1=O
inhibition [14]: 14.2%
inhibition [15]: 20.5%
inhibition (INH) (Pseudomonas aeruginosa [16]): 28.6%
inhibition [17]: 50.5%

CCOC(=O)CC(=O)c1ccc([N+](=O)[O-])cc1
pIC50 [12]: 4.28

O=C(Nc1ccc(S(=O)(=O)N[C@H]2CCOC2=O)cc1)c1ccccc1C(F)(F)F
pIC50 [10]: 5.31
